Each structure is given as a SMILES string.

The results in this text go back to patent US20240150342A1, “ESTROGEN-RELATED RECEPTOR ALPHA MODULATORS” (LEAD PHARMA HOLDING B.V., priority 2019, published 2024).

In this assay the target is T1, ERRα ligand binding domain (ERRα-LBD) (Homo sapiens, UniProt P11474).
T1 construct: made in house; host or cells: E. coli
T1 sequence (P11474 193-421 limits assumed): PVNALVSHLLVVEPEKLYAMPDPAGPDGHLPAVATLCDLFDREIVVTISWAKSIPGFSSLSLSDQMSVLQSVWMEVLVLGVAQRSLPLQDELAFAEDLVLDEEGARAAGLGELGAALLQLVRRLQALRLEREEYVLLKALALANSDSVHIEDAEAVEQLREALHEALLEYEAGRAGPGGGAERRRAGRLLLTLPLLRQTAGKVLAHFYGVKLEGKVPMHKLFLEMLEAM
Put plainly: ERRα AlphaScreen Assay. The assay is classed as biochemical. The following applies: disruption of binding of ERRα-LBD protein to biotin-PGC1α-3 co-activator peptide; read-out: mean pIC50 (converted). From the text: This assay was based on the knowledge that nuclear receptors interact with cofactors in a ligand dependent matter. The sites of interaction have been mapped to LXXLL motifs that are present in the co-activator sequences. Short peptide sequences that contain the LXXLL motif mimic the behavior of full length co-activators.
The ERRα AlphaScreen Assay described here relies on the interaction of the co-activator peptide with purified bacterial- expressed ERRα ligand binding domain (ERRα-LBD); upon ligand binding, the ERRα protein can undergo a conformational change resulting in a loss of co-activator binding.
Compounds of the present invention were tested for their ability to disrupt binding of ERRα-LBD protein to co-activator peptide using AlphaScreen® Technology (Perkin Elmer). ERRα-LBD protein was expressed in E. coli as a 6×His Small Ubiquitin-like Modifier (SUMO) fusion. Bacterial expressed 6His-SUMO-ERRα-LBD protein was purified using affinity chromatography. All experiments were performed at room temperature in 384-well white non-binding plates (Greiner) using 50 mM Tris-HCl pH 7.5, 100 mM NaCl, 0.1% Pluronic F-127, 0.05% BSA and 5 mM TCEP as the buffer. Final DMSO concentration was 1% in the assay. Compounds were assayed in triplicate and: incubated with 0.81 nM ERRα-LBD protein and 10 μg/mL streptavidin donor beads and 10 μg/mL Ni-chelate acceptor beads for 1 hour at room temperature; followed by a 2-hour incubation with 15 nM biotin-PGC1α-3 peptide (QRRPCSELLKYLTTNDDPP) corresponding to amino acids 202 to 220.
The AlphaScreen signal was measured using an Envision Xcite plate reader (Perkin Elmer). Data was normalized, and curve fitting analysis was performed in GraphPad Prism 7 using a four-parameter dose-response fit.
Background: Bead proximity is the source of the signal in Alpha formats.

In the case of `COC(=O)c1ccc(Oc2ccc(C3CC(=O)Nc4n[nH]cc43)cc2OC)c2ccccc12` (centres unmarked) [Example 36, methyl 4-(2-methoxy-4-{6-oxo-2H,4H,5H,6H,7H-pyrazolo[3,4-b]pyridin-4-yl}phenoxy)naphthalene-1-carboxylate], the IC50 is not above 10 nM.

Turning to `COc1cc(C2CC(=O)Nc3n[nH]cc32)ccc1Oc1ccccc1C(F)(F)F` (centres unmarked) [Example 4, 4-{3-methoxy-4-[2-(trifluoromethyl)phenoxy]phenyl}-2H,4H,5H,6H,7H-pyrazolo[3,4-b]pyridin-6-one], the IC50 was 100 to 1000 nM.

As to `COc1cc(C2CC(=O)Nc3n[nH]cc32)ccc1Oc1ccccc1C1CCCC1` (centres unmarked) [Example 25, 4-[4-(2-cyclopentylphenoxy)-3-methoxyphenyl]-2H,4H,5H,6H,7H-pyrazolo[3,4-b]pyridin-6-one], the IC50 was 100 to 1000 nM.

Regarding `CC(C)(C)c1cc(C#N)ccc1Oc1ccc(C2CC(=O)Nc3n[nH]cc32)cc1` (centres unmarked) [Example 53, 3-tert-butyl-4-(4-{6-oxo-2H,4H,5H,6H,7H-pyrazolo[3,4-b]pyridin-4-yl}phenoxy)benzonitrile], the IC50 is 10 to 100 nM.

For `COc1cc(C2CC(=O)Nc3n[nH]cc32)ccc1Oc1cc(C)cc(C)c1` (single isomer, unassigned; (-)) [Example 82, (−)-4-[4-(3,5-dimethylphenoxy)-3-methoxyphenyl]-2H,4H,5H,6H,7H-pyrazolo[3,4-b]pyridin-6-one], the IC50 is 10 to 100 nM.

As to `COc1cc(C2CC(=O)Nc3n[nH]cc32)ccc1Oc1ccccc1OC(F)(F)F` (centres unmarked) [Example 12, 4-{3-methoxy-4-[2-(trifluoromethoxy)phenoxy]phenyl}-2H,4H,5H,6H,7H-pyrazolo[3,4-b]pyridin-6-one], the IC50 was 10 to 100 nM.

On to `O=C1CC(c2ccc(Oc3ccccc3C(F)(F)F)c(OC(F)(F)F)c2)c2c[nH]nc2N1` (centres unmarked) [Example 60, 4-[3-(trifluoromethoxy)-4-[2-(trifluoromethyl)phenoxy]phenyl]-2H,4H,5H,6H,7H-pyrazolo[3,4-b]pyridin-6-one], for which the IC50 is 100 to 1000 nM.

Take `COc1cc(C2CC(=O)Nc3n[nH]cc32)ccc1Oc1cc(C)cc(C)c1` (centres unmarked) [Example 64, 4-[4-(3,5-dimethylphenoxy)-3-methoxyphenyl]-2H,4H,5H,6H,7H-pyrazolo[3,4-b]pyridin-6-one]: the IC50 was 10 to 100 nM.

As for `COc1cc(C2CC(=O)Nc3n[nH]cc32)ccc1Oc1ccc(C)cc1C` (centres unmarked) [Example 66, 4-[4-(2,4-dimethylphenoxy)-3-methoxyphenyl]-2H,4H,5H,6H,7H-pyrazolo[3,4-b]pyridin-6-one], the IC50 is 100 to 1000 nM.

On to `COc1cc(C2CC(=O)Nc3n[nH]cc32)ccc1Oc1cc(C(F)F)cc(C(F)(F)F)c1` (centres unmarked) [Example 77, 4-{4-[3-(difluoromethyl)-5-(trifluoromethyl)phenoxy]-3-methoxyphenyl}-2H,4H,5H,6H,7H-pyrazolo[3,4-b]pyridin-6-one], for which the IC50 is 10 to 100 nM.

As to `COc1cc(C2CC(=O)Nc3n[nH]cc32)ccc1Oc1cc(C(F)F)cc(C(F)(F)F)c1` (single isomer, unassigned; (+)) [Example 85, (+)-4-{4-[3-(difluoromethyl)-5-(trifluoromethyl)phenoxy]-3-methoxyphenyl}-2H,4H,5H,6H,7H-pyrazolo[3,4-b]pyridin-6-one], the IC50 was 100 to 1000 nM.

On to `COc1cc(C2CC(=O)Nc3n[nH]cc32)ccc1Oc1ccc(C(F)(F)F)cc1C(F)F` (centres unmarked) [Example 78, 4-{4-[2-(difluoromethyl)-4-(trifluoromethyl)phenoxy]-3-methoxyphenyl}-2H,4H,5H,6H,7H-pyrazolo[3,4-b]pyridin-6-one], for which the IC50 is 10 to 100 nM.

`COc1cc(C2CC(=O)Nc3n[nH]cc32)ccc1Oc1cccc(Br)c1` (centres unmarked) [Example 14, 4-[4-(3-bromophenoxy)-3-methoxyphenyl]-2H,4H,5H,6H,7H-pyrazolo[3,4-b]pyridin-6-one]: the IC50 was 100 to 1000 nM.

In the case of `COc1cc(C2CC(=O)Nc3n[nH]cc32)ccc1Oc1cccc(OC(F)(F)F)c1` (centres unmarked) [Example 17, 4-{3-methoxy-4-[3-(trifluoromethoxy)phenoxy]phenyl}-2H,4H,5H,6H,7H-pyrazolo[3,4-b]pyridin-6-one], the IC50 was 100 to 1000 nM.
